Reference: publication PMC12040169 (PLOS Biology, 2025)

experiment: in vitro; conditions: human, hela cells, % viability

SMILES	viability at 28.5 h, 10 µM [%]
CCc1nn(CC(=O)NC2CCCC2)c(=O)c2cc3sccc3n12 [CBK284077]	84
CCOC(=O)C(C)n1nc(C)n2c(cc3ccsc32)c1=O (stereo not drawn) [CBK284079]	96.2
Cc1nn(CC(=O)NC2CCCCC2)c(=O)c2cc3ccsc3n12 [CBK284080]	94.9
Cc1nn(CC(=O)N2CCC(C)CC2)c(=O)c2cc3ccsc3n12 [CBK284081]	91.3
Cn1ccnc1C1(O)CC2CCC(C1)N2C(=O)c1ccccc1F (stereo not drawn) [CBK284085]	87.4
Cn1ccnc1C1(O)CC2CCC(C1)N2C(=O)c1cccc(F)c1 (stereo not drawn) [CBK284089]	93.9
Cn1ccnc1C1(O)CC2CCC(C1)N2C(=O)c1ccccc1Cl (stereo not drawn) [CBK284090]	99
Cn1ccnc1C1(O)CC2CCC(C1)N2C(=O)c1cccc(Cl)c1 (stereo not drawn) [CBK284091]	86
Cn1ccnc1C1(O)CC2CCC(C1)N2C(=O)c1c(F)cccc1F (stereo not drawn) [CBK284092]	88.7
O=C(CN1C2CCC1CC(O)(c1ccco1)C2)N1CCCCC1 (stereo not drawn) [CBK284093]	90.3
CCN(CC)C(=O)CN1C2CCC1CC(O)(c1ccco1)C2 (stereo not drawn) [CBK284094]	106
Cc1cc2c(cc3c(=O)n(CC(=O)NCC4CC4)nc(C)n32)s1 [CBK284097]	96.6
CCc1nn(CCN2CCCC2)c(=O)c2cc3sc(C)cc3n12 [CBK284098]	88.5
CCc1nn(CC(=O)NC2CC2)c(=O)c2cc3sc(C)cc3n12 [CBK284099]	91.9
CCc1nn(CC(=O)NCC2CC2)c(=O)c2cc3sc(C)cc3n12 [CBK284100]	85.7
CCN(CC)C(=O)Cn1nc(C)n2c(cc3ccsc32)c1=O [CBK284104]	97.3
O=C(CN1C2CCC1CC(O)(c1ccco1)C2)NCc1ccccc1 (stereo not drawn) [CBK284105]	94.5
O=C(CN1C2CCC1CC(O)(c1ccco1)C2)Nc1ccccc1F (stereo not drawn) [CBK284109]	96.7
CC(C(=O)N1C2CCC1CC(O)(c1ccco1)C2)c1ccccc1 (stereo not drawn) [CBK284112]	97.8
CCc1nn(Cc2ccccn2)c(=O)c2cc3sc(C)cc3n12 [CBK284113]	77
CC(C)C(=O)N1CCC(Cn2nc(-c3ccccc3)ccc2=O)CC1 [CBK284114]	83.1
CCc1nn(CC(=O)N2CCCC2)c(=O)c2cc3ccsc3n12 [CBK284120]	84.2

SMILES	viability at 28.5 h, 10 µM [%]
CCc1nn(CC(=O)N2CCCC2)c(=O)c2cc3sc(C)cc3n12 [CBK284122]	82.9
CCOC(=O)C(C)n1nc(CC)n2c(cc3sc(C)cc32)c1=O (stereo not drawn) [CBK284123]	86
CCc1nn(CC(=O)NC(C)(C)C)c(=O)c2cc3sc(C)cc3n12 [CBK284124]	83.9
Cc1cc2c(cc3c(=O)n(CCN4CCCC4)nc(C)n32)s1 [CBK284126]	95.5
CCCNC(=O)Cn1nc(CC)n2c(cc3ccsc32)c1=O [CBK284130]	91.5
CCc1nn(CC(=O)N(CC)CC)c(=O)c2cc3ccsc3n12 [CBK284132]	88.2
CCOC(=O)Cn1nc(CC)n2c(cc3ccsc32)c1=O [CBK284133]	83.9
O=C(c1cscn1)N1C2CCC1CC(O)(c1ccco1)C2 (stereo not drawn) [CBK284135]	105
CCc1nn(CC(=O)NC2CCC2)c(=O)c2cc3ccsc3n12 [CBK284136]	88.9
Cc1nn2c(C3CCCNC3)ccnc2c1-c1ccc(F)cc1 (stereo not drawn) [CBK284139]	78.8
CCc1nn(Cc2ccncc2)c(=O)c2cc3sc(C)cc3n12 [CBK284140]	85.7
Cc1nn(CC(=O)N2CCCCC2C)c(=O)c2cc3sccc3n12 (stereo not drawn) [CBK284141]	70
CCc1nn(CC(=O)NC2CCC2)c(=O)c2cc3sc(C)cc3n12 [CBK284142]	92.4
CCCc1nn(CC(=O)OC)c(=O)c2cc3ccsc3n12 [CBK284144]	98.7
CCCc1nn(CC(=O)N2CCCC2)c(=O)c2cc3ccsc3n12 [CBK284145]	85.5
CCCc1nn(CC(=O)NC(C)(C)C)c(=O)c2cc3ccsc3n12 [CBK284148]	83.7
C=CCn1c2cc(C)sc2c2cnn(CC(=O)NC3CC3)c(=O)c21 [CBK284149]	86.1
C=CCn1c2cc(C)sc2c2cnn(CC(=O)NC(C)C)c(=O)c21 [CBK284150]	89
CCn1c2cc(C)sc2c2cnn(CC(=O)NC(C)(C)C)c(=O)c21 [CBK284152]	92.5
Cc1cc2c(s1)c1cnn(Cc3cccnc3)c(=O)c1n2C [CBK284154]	79.1
Cc1cc2c(s1)c1cnn(CC(=O)NC(C)C)c(=O)c1n2C [CBK284155]	79.7
CCN(CC)C(=O)Cn1ncc2c3sc(C)cc3n(C)c2c1=O [CBK284156]	92.9

SMILES	viability at 28.5 h, 10 µM [%]
O=C(c1nccs1)C1CCN(C(=O)c2cccs2)CC1 [CBK284159]	106
O=C(c1nccs1)C1CCN(C(=O)Cc2ccc(Cl)cc2)CC1 [CBK284160]	84.1
O=C(c1nccs1)C1CCN(C(=O)Cc2ccccc2Cl)CC1 [CBK284162]	87.4
C=CCn1c2cc(C)sc2c2cnn(CC(=O)OC)c(=O)c21 [CBK284166]	89.3
CCN(CC)C(=O)Cn1ncc2c3sc(C)cc3n(CC)c2c1=O [CBK284167]	99.3
CCn1c2cc(C)sc2c2cnn(Cc3cccnc3)c(=O)c21 [CBK284169]	86.6
CCn1c2cc(C)sc2c2cnn(CC(=O)NC(C)C)c(=O)c21 [CBK284172]	85.8
CCn1c2cc(C)sc2c2cnn(CC(=O)N(C)C)c(=O)c21 [CBK284173]	85
O=C(c1nccs1)C1CCN(C(=O)c2ccccc2F)CC1 [CBK284174]	93.3
CC(C)(C)C(=O)N1CCC(n2nc(-c3cccs3)ccc2=O)CC1 [CBK284182]	92.9
CCc1nn(CC(=O)NC(C)(C)C)c(=O)c2cc3ccsc3n12 [CBK284183]	105
Cc1cc2nccc(C3CCCN(C(=O)c4ccccc4F)C3)n2n1 (stereo not drawn) [CBK284184]	97.2
CCOC(=O)Cn1ncc2c3sc(C)cc3n(CC)c2c1=O [CBK284185]	87.1
Cc1cc2c(s1)c1cnn(CC(=O)N3CCCCC3)c(=O)c1n2C [CBK284187]	82.3
Cc1cc2c(s1)c1cnn(Cc3ccncc3)c(=O)c1n2C [CBK284188]	86.4
CC1CCN(C(=O)Cn2ncn3c(cc4ccsc43)c2=O)CC1 [CBK284190]	101
CC1CCCC(C)N1C(=O)Cn1ncn2c(cc3ccsc32)c1=O (stereo not drawn) [CBK284191]	110
CCCc1nn(CC(=O)N(CC)CC)c(=O)c2cc3ccsc3n12 [CBK284192]	81.3
CCCc1nn(CC(=O)NC2CCC2)c(=O)c2cc3ccsc3n12 [CBK284194]	89.1
O=C(Cn1ncn2c(cc3ccsc32)c1=O)N1CCCCC1 [CBK284195]	85.2
CC1CCCCC1NC(=O)Cn1ncn2c(cc3ccsc32)c1=O (stereo not drawn) [CBK284196]	91.8
O=C(Cn1ncn2c(cc3ccsc32)c1=O)NCc1cccs1 [CBK284197]	90.3
